Reference: US20250059179A1, “Heterocyclic Compounds and Methods of Use” (AMGEN INC., priority 2021, published 2025)

Experiments:
[1] = test system: Phosphorylation of ERK1/2 in A-427 cells; experiment: Phospho-ERK1/2 MSD Assay; assay type: cell-based; conditions: Homo sapiens, A-427, 2 h, 2 h compound treatment, read-out: pERK (A427 cells) IC50
Procedure: A-427 (ATCC® HTB-53™) cells were cultured in RPMI 1640 Medium (ThermoFisher Scientific 11875093) containing 10% fetal bovine serum (ThermoFisher Scientific 16000044) and 1× penicillin-streptomycin-glutamine (ThermoFisher Scientific 10378016). Sixteen hours prior to compound treatment, A-427 cells were seeded in 96-well cell culture plates at a density of 25,000 cells/well and incubated at 37° C., 5% CO2. A compound dose-response titration was diluted in growth media, added to appropriate wells of a cell culture plate, and then incubated at 37° C., 5% CO2 for 2 h. Following compound treatment, cells were washed with ice-cold Dulbecco's phosphate-buffered saline, no Ca^2+ or Mg^2+ (ThermoFisher Scientific 14190144), and then lysed in RIPA buffer (50 mM Tris-HCl pH 7.5, 1% Igepal, 0.5% sodium deoxycholate, 150 mM NaCl, and 0.5% sodium dodecyl sulfate) containing protease inhibitors (Roche 4693132001) and phosphatase inhibitors (Roche 4906837001). Phosphorylation of ERK1/2 in compound-treated lysates was assayed using Phospho-ERK1/2 Whole Cell Lysate kits (Meso Scale Discovery K151DWD) according to the manufacturer's protocol. Assay plates were read on a Meso Scale Discovery Sector Imager 6000, and data were analyzed using a 4-parameter logistic model to calculate IC50 values.

[2] = molecular target: His-tagged KRAS G12D protein (Homo sapiens, UniProt P01116, G12D); experiment: KRAS G12D TR-FRET Assay; assay type: binding; conditions: biotinylated KRPep-2d substrate, 10 μM GDP;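 also: europium anti-His antibody paired with streptavidin-d2 as FRET partners, initial 30 min incubation, then peptide 1 h and detection reagents 1 h, all at room temperature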
Sequence of His-tagged KRAS G12D protein (P01116 1-188 isoform P01116-2 G12D): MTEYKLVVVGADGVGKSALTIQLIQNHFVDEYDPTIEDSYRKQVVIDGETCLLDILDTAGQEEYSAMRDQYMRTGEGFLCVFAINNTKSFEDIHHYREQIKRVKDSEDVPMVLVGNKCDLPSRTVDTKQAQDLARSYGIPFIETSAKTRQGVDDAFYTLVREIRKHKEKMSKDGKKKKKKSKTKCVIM

[3] = molecular target: GDP-bound KRAS protein (aa 1-169), containing both G12D and C118A amino acid substitutions (Homo sapiens, UniProt P01116, C118A/G12D); experiment: KRAS G12D Coupled Nucleotide Exchange Assay; assay type: biochemical; conditions: 2 h compound pre-incubation; SOS-mediated nucleotide exchange, cRAF AlphaScreen readout;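 also: IC50 obtained by fitting the AlphaScreen signal with a four-parameter logistic curve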
Sequence of GDP-bound KRAS protein (aa 1-169), containing both G12D and C118A amino acid substitutions (P01116 1-169 isoform P01116-2 G12D/C118A): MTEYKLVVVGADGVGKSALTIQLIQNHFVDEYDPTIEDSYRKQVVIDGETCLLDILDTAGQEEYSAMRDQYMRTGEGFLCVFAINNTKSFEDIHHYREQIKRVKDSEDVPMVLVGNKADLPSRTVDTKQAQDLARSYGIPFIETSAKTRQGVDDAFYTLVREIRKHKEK

Row | Compound | IC50 [1] [nM] | IC50 [2] [nM] | Avg 2 h Coupled Exchange IC50 [3] [nM]
1 | Nc1nc2c(-c3c(Cl)cc4c(N5C[C@H]6C[C@@H](C5)N6)nc(OCC56CCCN5CC(F)(F)C6)nc4c3F)ccc(F)c2s1 (stereo partly drawn) [Example 14, 4-(4-((1R,5S)-3,6-diazabicyclo[3.1.1]heptan-3-yl)-6-chloro-2-((2,2-difluorotetrahydro-1H-pyrrolizin-7a(5H)-yl)methoxy)-8-fluoroquinazolin-7-yl)-7-fluorobenzo[d] thiazol-2-amine] | 1500 | 12 | 14
2 | CN1CCC[C@H]1COc1nc(N2C[C@@H]3CC[C@H]2CN3)c2cc(Cl)c(-c3cccc4sc(N)nc34)c(F)c2n1 [Example 15, 4-(4-((15,4S)-2,5-diazabicyclo[2.2.2]octan-2-yl)-6-chloro-8-fluoro-2-(((S)-1-methylpyrrolidin-2-yl)methoxy)quinazolin-7-yl)benzo[d]thiazol-2-amine] | 2300 | 21 | 14
3 | C[C@H]1CNCCN1c1nc(OC[C@@H]2CCCN2C)nc2c(F)c(-c3cccc4sc(N)nc34)c(Cl)cc12 [Example 16, 4-(6-chloro-8-fluoro-4-((S)-2-methylpiperazin-1-yl)-2-(((S)-1-methylpyrrolidin-2-yl)methoxy)quinazolin-7-yl)benzo[d]thiazol-2-amine] | 4220 | 100 | 23
4 | CN1CCC[C@H]1COc1nc(N2C3CNCC2C3)c2cc(Cl)c(-c3cccc4sc(N)nc34)c(F)c2n1 [Example 18, 4-(4-(3,6-diazabicyclo[3.1.1]heptan-6-yl)-6-chloro-8-fluoro-2-(((S)-1-methylpyrrolidin-2-yl)methoxy)quinazolin-7-yl)benzo[d]thiazol-2-amine] | > 25000 | 158 | 49
5 | CN1CCC[C@H]1COc1nc(N2CCNC3CC32)c2cc(Cl)c(-c3cccc4sc(N)nc34)c(F)c2n1 (stereo partly drawn) [Example 20, 4-(4-(2,5-diazabicyclo[4.1.0]heptan-2-yl)-6-chloro-8-fluoro-2-(((S)-1-methylpyrrolidin-2-yl)methoxy)quinazolin-7-yl)benzo[d]thiazol-2-amine] | 2510 | 168 | 63
6 | Nc1nc2c(-c3c(Cl)cc4c(N5CCCNCC5)nc(OC[C@@]56CCCN5C[C@H](F)C6)nc4c3F)ccc(F)c2s1 [Example 28, 4-(6-chloro-4-(1,4-diazepan-1-yl)-8-fluoro-2-(((2R,7aS)-2-fluorotetrahydro-1H-pyrrolizin-7a(5H)-yl)methoxy)quinazolin-7-yl)-7-fluorobenzo[d] thiazol-2-amine] | 2300 | 8 | 3
7 | Nc1nc2c(-c3c(Cl)cc4c(N5CC6CCC(C5)NC6)nc(OC[C@@]56CCCN5C[C@H](F)C6)nc4c3F)ccc(F)c2s1 (stereo partly drawn) [Example 31, 4-(4-(3,6-diazabicyclo[3.2.2]nonan-3-yl)-6-chloro-8-fluoro-2-(((2R,7aS)-2-fluorotetrahydro-1H-pyrrolizin-7a(5H)-yl)methoxy)quinazolin-7-yl)-7-fluorobenzo[d] thiazol-2-amine] | 1020 | 6 | 5
8 | Nc1nc2c(-c3c(Cl)cc4c(N5CC6CC5CCN6)nc(OC[C@@]56CCCN5C[C@H](F)C6)nc4c3F)ccc(F)c2s1 (stereo partly drawn) [Example 34, 4-(4-(2,6-diazabicyclo[3.2.1]octan-6-yl)-6-chloro-8-fluoro-2-(((2R,7aS)-2-fluorotetrahydro-1H-pyrrolizin-7a(5H)-yl)methoxy)quinazolin-7-yl)-7-fluorobenzo[d] thiazol-2-amine] | 3100 | 11 | 4
9 | CN1CCC[C@H]1COc1nc(N2CCCNCCC2)c2cc(Cl)c(-c3cccc4sc(N)nc34)c(F)c2n1 [Example 35, 4-(6-chloro-4-(1,5-diazocan-1-yl)-8-fluoro-2-(((S)-1-methylpyrrolidin-2-yl)methoxy)quinazolin-7-yl)benzo[d]thiazol-2-amine] | > 10000 | 336 | 65
10 | Nc1nc2c(-c3c(Cl)cc4c(N5C[C@@H]6CC[C@H]5CN6)nc(OC[C@@]56CCCN5C[C@H](F)C6)nc4c3F)ccc(F)c2s1 [Example 38, 4-(4-((15,4S)-2,5-diazabicyclo[2.2.2]octan-2-yl)-6-chloro-8-fluoro-2-(((2R,7aS)-2-fluorotetrahydro-1H-pyrrolizin-7a(5H)-yl)methoxy)quinazolin-7-yl)-7-fluorobenzo[d] thiazol-2-amine] | 1090 | 6 | 13
11 | Nc1nc2c(-c3c(Cl)cc4c(N5CCNC6CC65)nc(OC[C@@]56CCCN5C[C@H](F)C6)nc4c3F)ccc(F)c2s1 (stereo partly drawn) [Example 39, 4-(4-(2,5-diazabicyclo[4.1.0]heptan-2-yl)-6-chloro-8-fluoro-2-(((2R,7aS)-2-fluorotetrahydro-1H-pyrrolizin-7a(5H)-yl)methoxy)quinazolin-7-yl)-7-fluorobenzo[d] thiazol-2-amine] | 977 | 11 | 14
12 | Nc1nc2c(-c3c(Cl)cc4c(N5CCNC6CCCC65)nc(OC[C@@]56CCCN5C[C@H](F)C6)nc4c3F)ccc(F)c2s1 (stereo partly drawn) [Example 40, 4-(6-chloro-8-fluoro-2-(((2R,7aS)-2-fluorotetrahydro-1H-pyrrolizin-7a(5H)-yl)methoxy)-4-(octahydro-1H-cyclopenta[b]pyrazin-1-yl)quinazolin-7-yl)-7-fluorobenzo[d] thiazol-2-amine] | 5610 | 51 | 48
13 | Nc1nc2c(-c3c(Cl)cc4c(N5CCNCC5)nc(OC[C@@H]5C[C@@H](F)CN5)nc4c3F)cccc2s1 [Example 47, 4-(6-chloro-8-fluoro-2-(((2S,4R)-4-fluoro-pyrrolidin-2-yl)methoxy)-4-(piperazin-1-yl)quinazolin-7-yl)benzo[d] thiazol-2-amine] | > 25000 | 81 | 26
14 | Nc1nc2c(-c3c(Cl)cc4c(N5CCNCC5)nc(OC[C@]56CCCN5[C@@H](CO)CC6)nc4c3F)cccc2s1 [Example 50, ((3R,7aR)-7a-(((7-(2-aminobenzo[d]thiazol-4-yl)-6-chloro-8-fluoro-4-(piperazin-1-yl)quinazolin-2-yl)oxy)methyl)hexahydro-1H-pyrrolizin-3-yl)methanol] | 20200 | 55 | 42
15 | Nc1nc2c(-c3c(Cl)cc4c(N5CCNCC5)nc(OC[C@@]56CCCN5[C@@H](CO)CC6)nc4c3F)cccc2s1 [Example 51, ((3R,7aS)-7a-(((7-(2-aminobenzo[d]thiazol-4-yl)-6-chloro-8-fluoro-4-(piperazin-1-yl)quinazolin-2-yl)oxy)methyl)hexahydro-1H-pyrrolizin-3-yl)methanol] | 16700 | 53 | 42
16 | CN1CC[C@H]1COc1nc(N2CCNCC2)c2cc(Cl)c(-c3cccc4sc(N)nc34)c(F)c2n1 [Example 52, 4-(6-chloro-8-fluoro-2-(((S)-1-methylazetidin-2-yl)methoxy)-4-(piperazin-1-yl)quinazolin-7-yl)benzo[d] thiazol-2-amine] | 16000 | 134 | 59
17 | CN1CC[C@@H](COc2nc(N3CCNCC3)c3cc(Cl)c(-c4cccc5sc(N)nc45)c(F)c3n2)C1 [Example 53, 4-(6-chloro-8-fluoro-2-(((R)-1-methyl-pyrrolidin-3-yl)methoxy)-4-(piperazin-1-yl)quinazolin-7-yl)benzo[d] thiazol-2-amine] | > 25000 | 414 | 75
18 | Nc1nc2c(-c3c(Cl)cc4c(N5CCNCC5)nc(OC[C@@H]5CCCN5CCF)nc4c3F)cccc2s1 [Example 56, 4-(6-chloro-8-fluoro-2-(((S)-1-(2-fluoroethyl)pyrrolidin-2-yl)methoxy)-4-(piperazin-1-yl)quinazolin-7-yl)benzo[d] thiazol-2-amine] | 5670 | 266 | 118
19 | Nc1nc2c(-c3c(Cl)cc4c(N5CCNCC5)nc(OCC56CCCCN5CCC6)nc4c3F)cccc2s1 (stereo not drawn) [Example 57, 4-(6-chloro-8-fluoro-2-((hexahydro-indolizin-8a(1H)-yl)methoxy)-4-(piperazin-1-yl)quinazolin-7-yl)benzo[d] thiazol-2-amine] | > 25000 | 265 | 141
20 | CN1CC[C@@H]1COc1nc(N2CCNCC2)c2cc(Cl)c(-c3cccc4sc(N)nc34)c(F)c2n1 [Example 58, 4-(6-chloro-8-fluoro-2-(((R)-1-methylazetidin-2-yl)methoxy)-4-(piperazin-1-yl)quinazolin-7-yl)benzo[d] thiazol-2-amine] | 18200 | 444 | 176
